Data: patent publication US5798335A, “Method for the treatment or prevention of eczema/dermatitis” (priority 1993, dated 1998)

Assays:
inflammatory lesions = conditions: three lesions severity 1 on back; dermal spray morning and afternoon; after three days
Protocol: The usefulness of the method of the present invention was assessed in experiments using dogs.

skin conditions = tested on: skin conditions
Protocol: Following these initial trials a further trial was conducted […].
The trial was a double-blinded, placebo controlled trial in which the compound was compared with placebo treatment. […] The study was conducted as follows:
1. Assessment by a veterinarian.
2. Treatment Period A: 14 days.
3. Assessment by a veterinarian.
4. No treatment for seven days as a wash-out period.
5. Assessment by a veterinarian.
6. Treatment Period B: 14 days.
7. Assessment by a veterinarian.
8. No treatment for seven days.
9. Assessment by a veterinarian.

D-Ala-Ser-Thr-Thr-Thr-Asn-Tyr-Thr-NH2 [Peptide T]
Treatment results (lesions) (inflammatory lesions): Lesions had disappeared | cases of mild improvement in one parameter (usually erythema) (skin conditions; 14 day treatment period, crossover with placebo): five | dogs with significant improvement (skin conditions; 14 day treatment period, these dogs had atopic dermatitis): two | dogs with no change (skin conditions; 14 day treatment periods, crossover with placebo): ten
